Measured values: PMC7714403 (JCI Insight, 2020)
Like-named read-outs stand apart in the source and are kept apart here.

Legend:
Test in all cases: KiNativ, MOLM13 live cells
Type in all cases: cell-based
CDK2 = CDK2 (Homo sapiens, UniProt P24941); details: 100 nM, 2 hours
Protocol: (§1) Samples were analyzed by KiNativ in situ kinase profiling by ActivX Biosciences.

IRAK3 = biological target: T1, IRAK3 (Homo sapiens, UniProt Q9Y616); details: MOLM-13; 100 nM, 2 hours; Lys1; read-out: Inhibition vs DMSO
T1 sequence (Q9Y616 1-596): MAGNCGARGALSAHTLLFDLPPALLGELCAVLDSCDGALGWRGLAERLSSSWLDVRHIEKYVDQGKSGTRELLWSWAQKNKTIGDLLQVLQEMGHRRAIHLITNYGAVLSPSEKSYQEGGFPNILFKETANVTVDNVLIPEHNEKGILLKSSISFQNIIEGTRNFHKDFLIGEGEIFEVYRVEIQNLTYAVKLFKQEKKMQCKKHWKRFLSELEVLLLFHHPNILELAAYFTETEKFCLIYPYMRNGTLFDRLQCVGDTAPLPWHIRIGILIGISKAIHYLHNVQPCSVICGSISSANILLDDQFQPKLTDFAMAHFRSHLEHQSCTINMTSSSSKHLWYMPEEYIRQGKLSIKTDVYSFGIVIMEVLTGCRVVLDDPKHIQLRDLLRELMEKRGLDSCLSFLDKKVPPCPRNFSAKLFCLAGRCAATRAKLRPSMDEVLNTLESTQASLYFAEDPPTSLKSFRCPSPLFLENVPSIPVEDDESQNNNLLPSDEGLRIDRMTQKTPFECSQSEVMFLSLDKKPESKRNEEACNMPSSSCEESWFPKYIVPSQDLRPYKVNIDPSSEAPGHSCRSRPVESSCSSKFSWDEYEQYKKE
Protocol: as §1

MAP3K1 = MAP3K1 (Homo sapiens, UniProt Q13233); details: MOLM-13; 100 nM, 2 hours; Lys2; read-out: Inhibition vs DMSO
Protocol: as §1

MLKL = biological target: T2, MLKL (Homo sapiens, UniProt Q8NB16); details: MOLM-13, 2 h, 100 nM
T2 sequence (Q8NB16 1-471): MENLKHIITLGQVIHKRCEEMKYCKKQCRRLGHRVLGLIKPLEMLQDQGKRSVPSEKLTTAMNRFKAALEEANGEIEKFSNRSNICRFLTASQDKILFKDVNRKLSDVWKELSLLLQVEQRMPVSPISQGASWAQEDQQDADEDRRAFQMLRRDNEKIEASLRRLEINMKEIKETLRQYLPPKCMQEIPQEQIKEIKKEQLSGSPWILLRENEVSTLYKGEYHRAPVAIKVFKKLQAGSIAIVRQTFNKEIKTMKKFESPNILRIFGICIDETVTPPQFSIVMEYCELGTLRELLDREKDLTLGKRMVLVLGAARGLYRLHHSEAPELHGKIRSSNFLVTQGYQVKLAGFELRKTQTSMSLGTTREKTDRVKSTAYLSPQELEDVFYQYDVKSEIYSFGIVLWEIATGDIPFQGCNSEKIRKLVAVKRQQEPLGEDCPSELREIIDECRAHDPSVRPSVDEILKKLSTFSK
Protocol: as §1

NLK = NLK (Homo sapiens, UniProt Q9UBE8); details: MOLM-13; 100 nM, 2 hours; Lys2; read-out: Inhibition vs DMSO
Chain of NLK (Q9UBE8 whole entry): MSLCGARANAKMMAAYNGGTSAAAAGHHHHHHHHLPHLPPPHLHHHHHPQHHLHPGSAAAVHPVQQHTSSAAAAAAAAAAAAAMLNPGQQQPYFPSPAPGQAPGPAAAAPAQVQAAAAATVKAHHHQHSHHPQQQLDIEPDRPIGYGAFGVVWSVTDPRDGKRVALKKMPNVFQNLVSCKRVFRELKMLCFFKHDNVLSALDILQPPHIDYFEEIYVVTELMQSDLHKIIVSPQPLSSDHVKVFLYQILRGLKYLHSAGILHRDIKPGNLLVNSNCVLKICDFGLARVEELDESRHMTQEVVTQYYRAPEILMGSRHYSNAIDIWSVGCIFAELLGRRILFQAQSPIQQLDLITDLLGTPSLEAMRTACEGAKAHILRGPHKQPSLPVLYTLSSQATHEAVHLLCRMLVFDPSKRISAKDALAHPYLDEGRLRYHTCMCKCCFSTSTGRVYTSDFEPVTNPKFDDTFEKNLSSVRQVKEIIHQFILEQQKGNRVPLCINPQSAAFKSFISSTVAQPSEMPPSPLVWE
Protocol: as §1

PFTAIRE1 = PFTAIRE1 (Homo sapiens, UniProt O94921); details: 100 nM, 2 hours; Lys1
Chain of PFTAIRE1 (O94921 whole entry): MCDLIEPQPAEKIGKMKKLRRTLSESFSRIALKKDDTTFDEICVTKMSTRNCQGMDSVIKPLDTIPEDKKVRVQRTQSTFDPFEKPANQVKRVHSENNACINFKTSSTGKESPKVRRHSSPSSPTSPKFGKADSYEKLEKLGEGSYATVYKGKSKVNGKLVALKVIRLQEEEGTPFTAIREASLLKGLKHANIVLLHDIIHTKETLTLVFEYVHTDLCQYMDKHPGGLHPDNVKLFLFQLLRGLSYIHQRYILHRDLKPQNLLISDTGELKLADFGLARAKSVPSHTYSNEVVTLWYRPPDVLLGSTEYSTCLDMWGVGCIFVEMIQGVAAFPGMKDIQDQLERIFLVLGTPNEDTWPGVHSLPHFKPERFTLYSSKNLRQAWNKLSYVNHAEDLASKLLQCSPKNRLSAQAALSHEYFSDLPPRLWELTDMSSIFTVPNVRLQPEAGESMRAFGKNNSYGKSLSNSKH
Chain of PFTAIRE1 (Q8ND76 whole entry partner): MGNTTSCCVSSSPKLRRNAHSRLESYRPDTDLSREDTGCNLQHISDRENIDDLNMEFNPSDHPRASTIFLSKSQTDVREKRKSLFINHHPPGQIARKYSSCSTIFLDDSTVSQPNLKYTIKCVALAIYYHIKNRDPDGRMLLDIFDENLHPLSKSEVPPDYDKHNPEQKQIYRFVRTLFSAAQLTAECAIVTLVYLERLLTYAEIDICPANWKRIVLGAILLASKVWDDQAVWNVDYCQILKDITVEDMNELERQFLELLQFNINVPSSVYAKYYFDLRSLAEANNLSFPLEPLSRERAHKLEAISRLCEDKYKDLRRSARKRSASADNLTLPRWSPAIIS
Protocol: as §1

PI4KB = PI4KB (Homo sapiens, UniProt Q9UBF8); details: MOLM-13, 2 h, 100 nM, ATP, read-out: Inhibition vs DMSO
Chain of PI4KB (Q9UBF8 whole entry): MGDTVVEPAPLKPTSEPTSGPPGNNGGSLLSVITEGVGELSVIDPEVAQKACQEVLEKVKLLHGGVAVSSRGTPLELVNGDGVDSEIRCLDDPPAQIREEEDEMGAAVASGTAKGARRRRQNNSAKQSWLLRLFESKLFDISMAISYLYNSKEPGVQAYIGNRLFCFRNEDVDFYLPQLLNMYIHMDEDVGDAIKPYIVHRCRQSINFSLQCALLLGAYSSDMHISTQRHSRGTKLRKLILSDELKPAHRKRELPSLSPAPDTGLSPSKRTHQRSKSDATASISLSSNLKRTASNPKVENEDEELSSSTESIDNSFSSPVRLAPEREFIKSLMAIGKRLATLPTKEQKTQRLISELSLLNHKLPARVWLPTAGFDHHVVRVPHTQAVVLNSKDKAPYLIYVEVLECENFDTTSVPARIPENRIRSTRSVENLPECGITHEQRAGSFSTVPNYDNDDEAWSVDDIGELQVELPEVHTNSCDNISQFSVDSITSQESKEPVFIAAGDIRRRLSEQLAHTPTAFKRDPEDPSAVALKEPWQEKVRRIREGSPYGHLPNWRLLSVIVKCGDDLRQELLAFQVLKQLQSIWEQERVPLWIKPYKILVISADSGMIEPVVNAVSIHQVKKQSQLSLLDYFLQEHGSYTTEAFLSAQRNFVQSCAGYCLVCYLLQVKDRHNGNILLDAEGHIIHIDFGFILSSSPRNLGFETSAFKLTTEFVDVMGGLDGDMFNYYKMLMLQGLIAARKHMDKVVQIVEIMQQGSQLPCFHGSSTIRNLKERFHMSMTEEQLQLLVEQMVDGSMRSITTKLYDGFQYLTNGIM
Protocol: as §1

RSK1 domain1 = biological target: T3, RSK1 domain1 (Homo sapiens, UniProt Q15418); details: MOLM-13; 100 nM, 2 hours; Activation Loop; read-out: Inhibition vs DMSO
T3 construct: RSK1 domain1
T3 sequence (Q15418 whole entry, the tested form may be a part): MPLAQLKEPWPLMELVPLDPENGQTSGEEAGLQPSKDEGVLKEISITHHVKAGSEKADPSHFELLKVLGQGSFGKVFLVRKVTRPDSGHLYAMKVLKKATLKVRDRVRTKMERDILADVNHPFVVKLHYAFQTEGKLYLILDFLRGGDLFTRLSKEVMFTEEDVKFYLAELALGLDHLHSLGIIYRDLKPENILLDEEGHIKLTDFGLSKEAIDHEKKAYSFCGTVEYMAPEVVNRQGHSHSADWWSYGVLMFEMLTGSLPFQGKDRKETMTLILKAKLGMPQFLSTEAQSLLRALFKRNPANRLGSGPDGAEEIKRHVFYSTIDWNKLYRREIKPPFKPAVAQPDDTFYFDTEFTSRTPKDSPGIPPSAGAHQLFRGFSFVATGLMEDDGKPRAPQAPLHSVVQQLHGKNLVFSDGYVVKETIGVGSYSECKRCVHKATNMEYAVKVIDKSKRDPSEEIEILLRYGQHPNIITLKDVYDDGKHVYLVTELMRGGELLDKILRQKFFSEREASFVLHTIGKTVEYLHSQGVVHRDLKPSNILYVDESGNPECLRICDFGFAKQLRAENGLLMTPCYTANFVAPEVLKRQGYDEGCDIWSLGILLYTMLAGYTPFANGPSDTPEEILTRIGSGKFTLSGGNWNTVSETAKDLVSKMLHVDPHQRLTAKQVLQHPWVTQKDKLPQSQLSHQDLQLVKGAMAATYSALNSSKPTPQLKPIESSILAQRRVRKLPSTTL
Protocol: as §1

TAO2 = TAO2 (Homo sapiens, UniProt Q9UL54); details: MOLM-13; 100 nM, 2 hours; Lys2; read-out: Inhibition vs DMSO
Chain of TAO2 (Q9UL54 whole entry): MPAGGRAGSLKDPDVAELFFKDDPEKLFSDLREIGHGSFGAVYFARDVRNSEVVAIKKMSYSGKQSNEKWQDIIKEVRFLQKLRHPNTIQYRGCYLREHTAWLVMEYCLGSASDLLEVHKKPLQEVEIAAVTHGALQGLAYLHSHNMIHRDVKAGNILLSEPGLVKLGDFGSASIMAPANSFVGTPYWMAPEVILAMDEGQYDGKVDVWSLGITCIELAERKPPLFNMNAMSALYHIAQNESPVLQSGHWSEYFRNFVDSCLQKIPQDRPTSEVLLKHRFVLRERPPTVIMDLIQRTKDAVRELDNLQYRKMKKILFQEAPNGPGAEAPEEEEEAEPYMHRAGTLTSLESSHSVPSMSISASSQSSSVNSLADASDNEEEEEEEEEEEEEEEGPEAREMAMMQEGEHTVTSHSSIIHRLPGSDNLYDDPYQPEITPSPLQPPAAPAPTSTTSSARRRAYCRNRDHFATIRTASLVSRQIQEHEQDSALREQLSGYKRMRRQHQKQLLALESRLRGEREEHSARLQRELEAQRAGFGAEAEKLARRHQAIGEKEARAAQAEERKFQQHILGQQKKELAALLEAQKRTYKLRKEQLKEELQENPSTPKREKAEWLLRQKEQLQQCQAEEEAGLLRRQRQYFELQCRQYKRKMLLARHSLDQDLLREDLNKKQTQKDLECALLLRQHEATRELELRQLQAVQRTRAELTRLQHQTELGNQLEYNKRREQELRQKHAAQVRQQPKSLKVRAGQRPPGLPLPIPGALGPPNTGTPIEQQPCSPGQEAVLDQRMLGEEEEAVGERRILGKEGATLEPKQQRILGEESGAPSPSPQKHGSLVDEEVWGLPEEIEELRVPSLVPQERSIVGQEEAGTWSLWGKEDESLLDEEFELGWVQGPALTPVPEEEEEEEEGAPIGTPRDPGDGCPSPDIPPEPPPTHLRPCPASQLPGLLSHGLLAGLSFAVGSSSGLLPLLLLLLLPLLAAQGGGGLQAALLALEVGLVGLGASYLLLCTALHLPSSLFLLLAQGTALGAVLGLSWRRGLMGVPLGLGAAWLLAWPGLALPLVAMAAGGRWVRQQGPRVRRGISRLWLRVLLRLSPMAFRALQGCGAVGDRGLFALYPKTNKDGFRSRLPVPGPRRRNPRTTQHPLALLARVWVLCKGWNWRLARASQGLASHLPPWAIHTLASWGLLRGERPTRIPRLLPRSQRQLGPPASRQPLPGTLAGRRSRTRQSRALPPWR
Protocol: as §1

TBK1 = TBK1 (Homo sapiens, UniProt Q9UHD2); details: MOLM-13; 100 nM, 2 hours; Lys1; read-out: Inhibition vs DMSO
Chain of TBK1 (Q9UHD2 whole entry): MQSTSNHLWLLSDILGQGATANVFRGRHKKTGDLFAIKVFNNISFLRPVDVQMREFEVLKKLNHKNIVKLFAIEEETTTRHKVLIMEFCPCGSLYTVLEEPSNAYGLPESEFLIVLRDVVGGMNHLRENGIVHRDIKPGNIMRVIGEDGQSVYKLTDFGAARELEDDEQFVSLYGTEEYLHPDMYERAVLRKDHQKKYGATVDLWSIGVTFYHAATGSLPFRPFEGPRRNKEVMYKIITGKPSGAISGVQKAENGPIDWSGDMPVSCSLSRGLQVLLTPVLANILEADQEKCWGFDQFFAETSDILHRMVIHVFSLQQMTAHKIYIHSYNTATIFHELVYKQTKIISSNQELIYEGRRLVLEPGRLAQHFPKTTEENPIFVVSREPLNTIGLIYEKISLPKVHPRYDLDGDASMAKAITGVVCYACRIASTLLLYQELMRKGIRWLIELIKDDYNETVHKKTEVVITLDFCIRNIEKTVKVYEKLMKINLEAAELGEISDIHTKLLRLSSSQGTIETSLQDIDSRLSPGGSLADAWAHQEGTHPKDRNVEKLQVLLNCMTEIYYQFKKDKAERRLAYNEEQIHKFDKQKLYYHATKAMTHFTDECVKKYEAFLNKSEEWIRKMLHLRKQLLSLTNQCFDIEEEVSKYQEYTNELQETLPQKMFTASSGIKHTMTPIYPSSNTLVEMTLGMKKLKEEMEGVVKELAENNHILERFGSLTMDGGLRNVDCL
Protocol: as §1

ULK1 = biological target: T4, ULK1 (Homo sapiens, UniProt O75385); details: 100 nM, 2 hours; Lys2
T4 sequence (O75385 1-1050): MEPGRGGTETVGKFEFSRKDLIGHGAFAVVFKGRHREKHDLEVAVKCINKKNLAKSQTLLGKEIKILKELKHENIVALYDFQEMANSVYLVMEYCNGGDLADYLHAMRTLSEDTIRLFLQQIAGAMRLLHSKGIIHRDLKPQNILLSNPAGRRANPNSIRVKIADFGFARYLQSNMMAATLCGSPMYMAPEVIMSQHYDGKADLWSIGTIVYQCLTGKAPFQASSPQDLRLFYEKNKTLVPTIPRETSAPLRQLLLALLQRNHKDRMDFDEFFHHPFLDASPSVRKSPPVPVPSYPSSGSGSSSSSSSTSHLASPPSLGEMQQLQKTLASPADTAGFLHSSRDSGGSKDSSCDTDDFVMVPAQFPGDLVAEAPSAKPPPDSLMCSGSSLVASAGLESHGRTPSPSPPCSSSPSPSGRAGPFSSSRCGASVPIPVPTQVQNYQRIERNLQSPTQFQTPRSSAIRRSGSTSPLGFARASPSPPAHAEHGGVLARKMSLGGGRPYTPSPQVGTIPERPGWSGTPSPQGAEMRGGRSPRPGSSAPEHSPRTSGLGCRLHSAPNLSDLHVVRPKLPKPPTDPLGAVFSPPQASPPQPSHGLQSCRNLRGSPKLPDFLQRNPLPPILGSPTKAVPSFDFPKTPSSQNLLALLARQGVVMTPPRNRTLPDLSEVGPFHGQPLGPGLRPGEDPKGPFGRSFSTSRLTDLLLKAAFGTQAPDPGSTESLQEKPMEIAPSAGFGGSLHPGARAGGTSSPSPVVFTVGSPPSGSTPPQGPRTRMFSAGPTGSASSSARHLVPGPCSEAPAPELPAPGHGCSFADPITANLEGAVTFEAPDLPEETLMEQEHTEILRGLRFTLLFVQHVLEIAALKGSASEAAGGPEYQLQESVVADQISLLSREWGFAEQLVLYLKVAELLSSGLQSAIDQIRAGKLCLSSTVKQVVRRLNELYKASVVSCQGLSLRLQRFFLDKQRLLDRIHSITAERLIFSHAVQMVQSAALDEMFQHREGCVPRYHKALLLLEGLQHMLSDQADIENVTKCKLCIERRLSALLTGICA
Protocol: as §1

For `CN1CCN(Cc2ccc(Nc3ncc(Cl)c(Nc4ccccc4S(=O)(=O)N(C)C)n3)cc2)CC1` [TP-0903], the “Inhibition vs DMSO” value (CDK2; Lys1) was 2.7%, the “Inhibition vs DMSO” value (CDK2; Lys2) was 16.8% and the inhibition at 0.1 µM (IRAK3) was 92.5%. The inhibition at 0.1 µM (MAP3K1) was 55.7%, the inhibition at 0.1 µM (MLKL; Activation Loop, read-out: Inhibition vs DMSO) was -29% and the inhibition at 0.1 µM (MLKL; Lys1, read-out: Inhibition vs DMSO) was -26.9%. For the same compound, the inhibition at 0.1 µM (MLKL; Protein Kinase Domain, read-out: Inhibition vs DMSO) was -65.7%, the inhibition at 0.1 µM (NLK) was -30.4% and the “Inhibition vs DMSO” value (PFTAIRE1) was 29.5%. It also gave an inhibition at 0.1 µM (PI4KB; LLSVIVKCGDDLRQELLAFQVLK) of -5.9%, an inhibition at 0.1 µM (PI4KB; VPHTQAVVLNSKDK) of -12.3% and an inhibition at 0.1 µM (RSK1 domain1) of -3.8%. For the same compound, the inhibition at 0.1 µM (TAO2) was 10.8%, the inhibition at 0.1 µM (TBK1) was 82.3% and the “Inhibition vs DMSO” value (ULK1) was 45.8%.
